Test results reported in the supplement of paper PMC11919725.

Key:
[1] = test system: Primary T cells CD4+ naive; test: cytotoxicity relative to DMSO, 18 h (ratio); higher = less cell death (drugs called cytotoxic fall below 1)
Procedure, shortened: (§1)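 Fluorescence was imaged at ×10, five images per well, every hour for 3 h, in 96-well plates holding 100 µl of treated cell suspension and IncuCyte Cytotox Dye at 250 nM final. Before plating, Jurkat cells or primary CD4+/CD8+ T cells (naive, or activated 48 h with CD3/CD28 Dynabeads) had been treated for 18 h with compound across 1 nM–10 µM in log10 steps at 37 °C, 5% CO2. Cytotoxicity values were based on these IncuCyte signals after confluency correction and normalisation to the mean of control wells.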

[2] = test system: Jurkat; test: as above
Procedure, shortened: as §1

[3] = test system: Primary T cells CD8+ activated; test: as above
Procedure, shortened: as §1

[4] = test system: Primary T cells CD4+ activated; test: as above
Procedure, shortened: as §1

[5] = test system: Primary T cells CD8+ naive; test: as above
Procedure, shortened: as §1

[6] = test system: Primary T cells CD4+ naive; test: metabolic activity relative to DMSO, 18 h (ratio); higher = more viable
Procedure, shortened: (§2)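 Jurkat or primary CD4+/CD8+ T cells (naive, or activated 48 h with CD3/CD28 Dynabeads) were treated 18 h with compound at 1 nM–10 µM (log10 steps) at 37 °C, 5% CO2. Then 100 µl of suspension went into 96-well plates with alamarBlue (10% v/v final). After 3.5 h, fluorescence was read on a FluoStar Omega (excitation 544 nm, emission 584 nm). Metabolic activity is normalised to mean DMSO controls.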

[7] = test system: Jurkat; test: as above
Procedure, shortened: as §2

[8] = test system: Primary T cells CD8+ activated; test: as above
Procedure, shortened: as §2

[9] = test system: Primary T cells CD4+ activated; test: as above
Procedure, shortened: as §2

[10] = test system: Primary T cells CD8+ naive; test: as above
Procedure, shortened: as §2

[11] = test system: Primary T cells CD4+ naive; test: confluency relative to DMSO, 18 h (ratio); higher = more viable
Procedure, shortened: (§3)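 Jurkat cells and primary CD4+/CD8+ T cells, naive or activated with CD3/CD28 Dynabeads for 48 h, were treated with compound (1 nM–10 µM, log10 steps) for 18 h at 37 °C. Following transfer of 100 µl into 96-well plates with IncuCyte Cytotox Dye and alamarBlue, wells were imaged at ×10, five images per well, each hour for 3 h. Confluency, obtained with the IncuCyte Basic Analyzer from phase-contrast images, is normalised to the mean of the control wells.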

[12] = test system: Jurkat; test: as above
Procedure, shortened: as §3

[13] = test system: Primary T cells CD8+ activated; test: as above
Procedure, shortened: as §3

[14] = test system: Primary T cells CD4+ activated; test: as above
Procedure, shortened: as §3

[15] = test system: Primary T cells CD8+ naive; test: as above
Procedure, shortened: as §3

Question: With `Cc1[nH]c2ccccc2c1CCNCc1ccc(C=CC(=O)NO)cc1` [Panobinostat] as the molecule, how does the cytotoxicity ([1]; 1 nM) read?
Answer: Its cytotoxicity is 1.29.

Question: And the cytotoxicity ([1]; 10 nM)?
Answer: The cytotoxicity was 0.906.

Question: What about the cytotoxicity ([1]; 100 nM) of the same molecule?
Answer: Its cytotoxicity is 1.33.

Question: What about the cytotoxicity ([1]; 1000 nM) of the same molecule?
Answer: Its cytotoxicity is 1.19.

Question: And the cytotoxicity ([1]; 10000 nM)?
Answer: Its cytotoxicity is 0.853.

Question: What about the cytotoxicity ([2]; 1 nM) of the same molecule?
Answer: The cytotoxicity was 0.94.

Question: And the cytotoxicity ([2]; 10 nM)?
Answer: The cytotoxicity was 0.843.

Question: And the cytotoxicity ([2]; 100 nM)?
Answer: Its cytotoxicity is 0.933.

Question: What about the cytotoxicity ([2]; 1000 nM) of the same molecule?
Answer: The cytotoxicity was 0.873.

Question: And the cytotoxicity ([2]; 10000 nM)?
Answer: Its cytotoxicity is 0.921.

Question: What about the cytotoxicity ([3]; 1 nM) of the same molecule?
Answer: Its cytotoxicity is 0.993.

Question: And the cytotoxicity ([3]; 10 nM)?
Answer: The cytotoxicity was 0.888.

Question: And the cytotoxicity ([3]; 100 nM)?
Answer: Its cytotoxicity is 1.11.

Question: What about the cytotoxicity ([3]; 1000 nM) of the same molecule?
Answer: Its cytotoxicity is 1.34.

Question: And the cytotoxicity ([3]; 10000 nM)?
Answer: Its cytotoxicity is 1.3.

Question: What about the cytotoxicity ([4]; 1 nM) of the same molecule?
Answer: Its cytotoxicity is 1.04.

Question: What about the cytotoxicity ([4]; 10 nM) of the same molecule?
Answer: The cytotoxicity was 1.08.

Question: What about the cytotoxicity ([4]; 100 nM) of the same molecule?
Answer: Its cytotoxicity is 1.32.

Question: What about the cytotoxicity ([4]; 1000 nM) of the same molecule?
Answer: Its cytotoxicity is 1.5.

Question: And the cytotoxicity ([4]; 10000 nM)?
Answer: The cytotoxicity was 0.92.

Question: And the cytotoxicity ([5]; 1 nM)?
Answer: Its cytotoxicity is 1.34.

Question: What about the cytotoxicity ([5]; 10 nM) of the same molecule?
Answer: Its cytotoxicity is 0.493.

Question: What about the cytotoxicity ([5]; 100 nM) of the same molecule?
Answer: The cytotoxicity was 1.16.

Question: And the cytotoxicity ([5]; 1000 nM)?
Answer: The cytotoxicity was 0.814.

Question: And the cytotoxicity ([5]; 10000 nM)?
Answer: Its cytotoxicity is 1.06.

Question: What about the metabolic activity ([6]; 1 nM) of the same molecule?
Answer: The metabolic activity was 0.856.

Question: And the metabolic activity ([6]; 10 nM)?
Answer: Its metabolic activity is 0.957.

Question: What about the metabolic activity ([6]; 100 nM) of the same molecule?
Answer: Its metabolic activity is 0.728.

Question: What about the metabolic activity ([6]; 1000 nM) of the same molecule?
Answer: The metabolic activity was 0.726.

Question: And the metabolic activity ([6]; 10000 nM)?
Answer: Its metabolic activity is 0.813.

Question: And the metabolic activity ([7]; 1 nM)?
Answer: Its metabolic activity is 1.05.

Question: What about the metabolic activity ([7]; 10 nM) of the same molecule?
Answer: Its metabolic activity is 0.782.

Question: And the metabolic activity ([7]; 100 nM)?
Answer: Its metabolic activity is 0.681.

Question: And the metabolic activity ([7]; 1000 nM)?
Answer: Its metabolic activity is 0.72.

Question: What about the metabolic activity ([7]; 10000 nM) of the same molecule?
Answer: The metabolic activity was 0.849.

Question: And the metabolic activity ([8]; 1 nM)?
Answer: Its metabolic activity is 1.

Question: And the metabolic activity ([8]; 10 nM)?
Answer: Its metabolic activity is 0.909.

Question: What about the metabolic activity ([8]; 100 nM) of the same molecule?
Answer: The metabolic activity was 0.738.

Question: What about the metabolic activity ([8]; 1000 nM) of the same molecule?
Answer: The metabolic activity was 0.725.

Question: And the metabolic activity ([8]; 10000 nM)?
Answer: Its metabolic activity is 0.778.

Question: And the metabolic activity ([9]; 1 nM)?
Answer: The metabolic activity was 0.998.

Question: And the metabolic activity ([9]; 10 nM)?
Answer: The metabolic activity was 0.826.

Question: And the metabolic activity ([9]; 100 nM)?
Answer: The metabolic activity was 0.627.

Question: And the metabolic activity ([9]; 1000 nM)?
Answer: Its metabolic activity is 0.616.

Question: And the metabolic activity ([9]; 10000 nM)?
Answer: The metabolic activity was 0.875.

Question: What about the metabolic activity ([10]; 1 nM) of the same molecule?
Answer: The metabolic activity was 0.913.

Question: And the metabolic activity ([10]; 10 nM)?
Answer: The metabolic activity was 0.881.

Question: What about the metabolic activity ([10]; 100 nM) of the same molecule?
Answer: The metabolic activity was 0.836.

Question: What about the metabolic activity ([10]; 1000 nM) of the same molecule?
Answer: Its metabolic activity is 0.779.

Question: And the metabolic activity ([10]; 10000 nM)?
Answer: The metabolic activity was 0.766.

Question: And the confluency ([11]; 1 nM)?
Answer: Its confluency is 1.2.

Question: And the confluency ([11]; 10 nM)?
Answer: Its confluency is 1.02.

Question: What about the confluency ([11]; 100 nM) of the same molecule?
Answer: Its confluency is 1.29.

Question: And the confluency ([11]; 1000 nM)?
Answer: The confluency was 1.13.

Question: What about the confluency ([11]; 10000 nM) of the same molecule?
Answer: Its confluency is 0.869.

Question: What about the confluency ([12]; 1 nM) of the same molecule?
Answer: Its confluency is 0.912.

Question: And the confluency ([12]; 10 nM)?
Answer: The confluency was 0.937.

Question: What about the confluency ([12]; 100 nM) of the same molecule?
Answer: The confluency was 1.01.

Question: What about the confluency ([12]; 1000 nM) of the same molecule?
Answer: Its confluency is 0.992.

Question: And the confluency ([12]; 10000 nM)?
Answer: The confluency was 0.978.

Question: What about the confluency ([13]; 1 nM) of the same molecule?
Answer: The confluency was 0.974.

Question: What about the confluency ([13]; 10 nM) of the same molecule?
Answer: The confluency was 0.886.

Question: What about the confluency ([13]; 100 nM) of the same molecule?
Answer: Its confluency is 1.04.

Question: What about the confluency ([13]; 1000 nM) of the same molecule?
Answer: Its confluency is 1.26.

Question: What about the confluency ([13]; 10000 nM) of the same molecule?
Answer: The confluency was 1.21.

Question: What about the confluency ([14]; 1 nM) of the same molecule?
Answer: The confluency was 1.04.

Question: And the confluency ([14]; 10 nM)?
Answer: The confluency was 1.01.

Question: And the confluency ([14]; 100 nM)?
Answer: The confluency was 1.17.

Question: And the confluency ([14]; 1000 nM)?
Answer: Its confluency is 1.35.

Question: And the confluency ([14]; 10000 nM)?
Answer: Its confluency is 1.02.

Question: And the confluency ([15]; 1 nM)?
Answer: The confluency was 1.19.

Question: What about the confluency ([15]; 10 nM) of the same molecule?
Answer: The confluency was 0.473.

Question: What about the confluency ([15]; 100 nM) of the same molecule?
Answer: The confluency was 1.08.

Question: What about the confluency ([15]; 1000 nM) of the same molecule?
Answer: The confluency was 0.774.

Question: And the confluency ([15]; 10000 nM)?
Answer: Its confluency is 0.932.

Question: `CCCCc1nc2cc(C=CC(=O)NO)ccc2n1CCN(CC)CC` [Pracinostat] was tested. Which cytotoxicity ([1]; 1 nM) did it give?
Answer: Its cytotoxicity is 0.794.

Question: And the cytotoxicity ([1]; 10 nM)?
Answer: Its cytotoxicity is 1.19.

Question: And the cytotoxicity ([1]; 100 nM)?
Answer: The cytotoxicity was 1.38.

Question: And the cytotoxicity ([1]; 1000 nM)?
Answer: The cytotoxicity was 1.03.

Question: What about the cytotoxicity ([1]; 10000 nM) of the same molecule?
Answer: Its cytotoxicity is 0.897.

Question: What about the cytotoxicity ([2]; 1 nM) of the same molecule?
Answer: Its cytotoxicity is 0.918.

Question: What about the cytotoxicity ([2]; 10 nM) of the same molecule?
Answer: The cytotoxicity was 0.836.

Question: And the cytotoxicity ([2]; 100 nM)?
Answer: The cytotoxicity was 0.799.

Question: And the cytotoxicity ([2]; 1000 nM)?
Answer: The cytotoxicity was 1.02.

Question: And the cytotoxicity ([2]; 10000 nM)?
Answer: Its cytotoxicity is 0.852.

Question: What about the metabolic activity ([6]; 1 nM) of the same molecule?
Answer: The metabolic activity was 0.982.

Question: What about the metabolic activity ([6]; 10 nM) of the same molecule?
Answer: The metabolic activity was 0.951.

Question: What about the metabolic activity ([6]; 100 nM) of the same molecule?
Answer: The metabolic activity was 0.917.

Question: What about the metabolic activity ([6]; 1000 nM) of the same molecule?
Answer: The metabolic activity was 0.946.

Question: And the metabolic activity ([6]; 10000 nM)?
Answer: Its metabolic activity is 0.877.

Question: What about the metabolic activity ([7]; 1 nM) of the same molecule?
Answer: Its metabolic activity is 1.09.

Question: What about the metabolic activity ([7]; 10 nM) of the same molecule?
Answer: Its metabolic activity is 0.964.

Question: What about the metabolic activity ([7]; 100 nM) of the same molecule?
Answer: Its metabolic activity is 1.03.

Question: What about the metabolic activity ([7]; 1000 nM) of the same molecule?
Answer: Its metabolic activity is 0.737.

Question: And the metabolic activity ([7]; 10000 nM)?
Answer: The metabolic activity was 0.621.

Question: And the confluency ([11]; 1 nM)?
Answer: Its confluency is 0.744.

Question: What about the confluency ([11]; 10 nM) of the same molecule?
Answer: Its confluency is 1.13.

Question: What about the confluency ([11]; 100 nM) of the same molecule?
Answer: The confluency was 1.29.

Question: What about the confluency ([11]; 1000 nM) of the same molecule?
Answer: Its confluency is 1.05.

Question: What about the confluency ([11]; 10000 nM) of the same molecule?
Answer: Its confluency is 0.873.

Question: What about the confluency ([12]; 1 nM) of the same molecule?
Answer: Its confluency is 0.945.

Question: And the confluency ([12]; 10 nM)?
Answer: Its confluency is 0.95.

Question: What about the confluency ([12]; 100 nM) of the same molecule?
Answer: Its confluency is 0.862.

Question: And the confluency ([12]; 1000 nM)?
Answer: Its confluency is 1.04.

Question: What about the confluency ([12]; 10000 nM) of the same molecule?
Answer: Its confluency is 0.908.
